In US20240122180A1, “FUNGICIDAL HALOMETHYL KETONES AND HYDRATES AND THEIR MIXTURES” (FMC Corporation, priority 2020, published 2024):

Columns and labels:
[1] = test system: Phakopsora pachyrhizi (the causal agent of Asian soybean rust); assay: Test A: preventive spray on soybean seedlings, visual disease rating (100 = 100% control; * 50 ppm, ** 10 ppm, *** 250 ppm); assay type: in vivo; details: 100 = 100% disease control; for pest or weed control at 10 ppm: Phakopsora pachyrhizi
Source text: (§1) General protocol for preparing test suspensions for Tests A-E: the test compounds were first dissolved in acetone in an amount equal to 3% of the final volume and then suspended at the desired concentration (in ppm) in acetone and purified water (50/50 mix by volume) containing 250 ppm of the surfactant […] (polyhydric alcohol esters). The resulting test suspensions were then used in Tests A-E.
The test solution was sprayed to the point of run-off on soybean seedlings. The following day the seedlings were inoculated with a spore suspension of Phakopsora pachyrhizi (the causal agent of Asian soybean rust) and incubated in a saturated atmosphere at 22° C. for 24 h, and then moved to a growth chamber at 22° C. for 8 days, after which time visual disease ratings were made.
(§2) Results for Tests A-E are given in Table A. In the Table, a rating of 100 indicates 100% disease control and a rating of 0 indicates no disease control (relative to the controls). An asterisk “*” or a double asterisk “**” or a triple asterisk “***” next to the rating value indicates a 50 ppm, 10 ppm and 250 ppm test suspension was used, respectively. A dash (-) indicates the compound was not tested.

[2] = test system: Puccinia recondita f. sp. tritici (the causal agent of wheat leaf rust); assay: Test B: preventive spray on wheat seedlings, disease rating (100 = 100% control; * 50 ppm, ** 10 ppm, *** 250 ppm); assay type: in vivo; details: 100 = 100% disease control; for pest or weed control at 10 ppm: Puccinia recondita
Source text: as §1
The test solution was sprayed to the point of run-off on wheat seedlings. The following day the seedlings were inoculated with a spore suspension of Puccinia recondita f. sp. tritici (the causal agent of wheat leaf rust) and incubated in a saturated atmosphere at 20° C. for 24 h, and then moved to a growth chamber at 20° C. for 6 days, after which time disease ratings were made.
as §2

[3] = 10 ppm test suspension, 0 = no control
[4] = 50 ppm test suspension, 0 = no control
[5] = 10 ppm test suspension, soybean seedlings
[6] = 10 ppm test suspension, wheat seedlings
[7] = 50 ppm test suspension, soybean seedlings
[8] = 50 ppm test suspension, wheat seedlings

Structure (SMILES)	Test A disease control rating [1, 5]	Test B disease control rating [2, 6]	other results
O=C(NCC(F)(F)F)c1cnc(Cc2ccc(OCC(O)(O)C(F)(F)F)cc2)s1 [compound 277]			Test A disease control rating [1, 3]: 50%; Test B disease control rating [2, 3]: 45%
CCOC(=O)c1cnn(Cc2ccc(NCC3(C(F)(F)F)OCCO3)cc2)c1 [compound 443]			Test A disease control rating [1, 4]: 48%; Test B disease control rating [2, 4]: 0%
CCOCc1cnn(Cc2ccc(OCC3(C(F)(F)F)OCCO3)cc2)c1 [compound 240]	99%	0%	
CCOC(=O)c1cnn(CCCc2ccc(OCC3(C(F)(F)F)OCCO3)cc2)c1 [compound 296]			Test A disease control rating [1, 3]: 0%; Test B disease control rating [2, 3]: 0%
CCOC(=COc1ccc(CSC(C)=O)cc1)C(F)(F)F [compound 445]			Test A disease control rating [1, 4]: 38%; Test B disease control rating [2, 4]: 0%
CCO/C(=C\Oc1cccc(Cn2cc(C(=O)OCCC(F)(F)F)cn2)c1)C(F)(F)F [compound 348]			Test A disease control rating [1, 3]: 100%; Test B disease control rating [2, 3]: 0%
O=C(OCC(F)(F)F)c1cnn(Cc2ccc(OCC3(C(F)(F)F)OCCO3)cc2)c1 [compound 134]	89%	32%	
CCOC(=O)c1cnn(Cc2cc(C)cc(O/C=C(\OCC)C(F)(F)F)c2)c1 [compound 406]			Test A disease control rating [1, 4]: 0%; Test B disease control rating [2, 4]: 0%
CCO/C(=C\Oc1cccc(Cn2cc(C(=O)OCCOC)cn2)c1)C(F)(F)F [compound 340]			Test A disease control rating [1, 3]: 100%; Test B disease control rating [2, 3]: 0%
CN(C)C(=O)c1cnn(Cc2ccc(OCC3(C(F)(F)F)OCCO3)cc2)c1 [compound 198]	0%	0%	
CCO/C(=C\Oc1ccc(Cn2cc(C(=O)NCC(F)(F)F)cn2)cc1)C(F)(F)F [compound 106]	0%	0%	
CCO/C(=C\Oc1ccc(Cn2cc(C#N)cn2)cc1)C(F)(F)F [compound 205]	0%	0%	
CCOC(=O)c1cnn(CCc2cccc(OCC(O)(O)C(F)(F)F)c2)c1 [compound 346]			pest or weed control at 10 ppm [1, 3]: 0%; pest or weed control at 10 ppm [2, 3]: 0%
CCS(=O)(=O)Cc1ccc(OCC2(C(F)(F)F)OCCO2)cc1 [compound 23]	0%	19%	
CCOC(=O)c1cnn(Cc2ccc(COCC3(C(F)(F)F)OCCO3)cc2)c1 [compound 141]	0%	0%	
CCOC(=COc1ccc(Cn2nccc2C(=O)OC(C)(C)C)cc1)C(F)(F)F [compound 252]	0%	0%	
C#CCOC(=O)c1cnn(Cc2cccc(O/C=C(\OCC)C(F)(F)F)c2)c1 [compound 336]			Test A disease control rating [1, 3]: 100%; Test B disease control rating [2, 3]: 0%
C=CCOC(=O)c1ccc(O/C=C(\OCC)C(F)(F)F)cc1 [compound 74]	0%	0%	
CCO/C(=C\Oc1ccc(C(=O)O)cc1)C(F)(F)F [compound 72]			Test A disease control rating [1, 7]: 13%; Test B disease control rating [2, 8]: 0%

Structure (SMILES)	Test A disease control rating [1, 5]	Test B disease control rating [2, 6]	other results
CC(C)OC(=O)c1cnn(Cc2ccc(OCC3(C(F)(F)F)OCCO3)cc2)c1 [compound 14]	100%	0%	
CC(C)CS(=O)(=O)NCc1ccc(OCC2(C(F)(F)F)OCCO2)cc1 [compound 76]	0%	0%	
N#CCNC(=O)c1cnn(Cc2ccc(OCC3(C(F)(F)F)OCCO3)cc2)c1 [compound 164]	31%	0%	
CCO/C(=C\Oc1ccc(CCn2cc(C(=O)OC)cn2)cc1)C(F)(F)F [compound 354]			Test A disease control rating [1, 3]: 100%; Test B disease control rating [2, 3]: 0%
CCO/C(=C\Oc1ccc(CS(=O)(=O)CC)cc1)C(F)(F)F [compound 62]	0%	0%	
CCO/C(=C\Oc1ccc(Cn2cc(C(=O)O)cn2)cc1)C(F)(F)F [compound 116]	100%	0%	
CCO/C(=C\Oc1ccc(Cn2ccc(C(=O)O)n2)cc1)C(F)(F)F [compound 299]			Test A disease control rating [1, 3]: 100%; Test B disease control rating [2, 3]: 0%
CCOC(=O)c1ccn(Cc2cc(OC)cc(O/C=C(\OCC)C(F)(F)F)c2)n1 [compound 378]			Test A disease control rating [1, 3]: 0%; Test B disease control rating [2, 3]: 0%
C=CCOC(=O)c1ccn(Cc2ccc(OC=C(OCC)C(F)(F)F)cc2)n1 [compound 291]			Test A disease control rating [1, 3]: 100%; Test B disease control rating [2, 3]: 0%
CCO/C(=C\Oc1ccc(Cn2cc(C(=O)NCC#N)cn2)cc1)C(F)(F)F [compound 107]	0%	0%	
C=CCO/C(=C\Oc1ccc(Cn2cc(C(=O)OCC)cn2)cc1)C(F)(F)F [compound 55]	0%	0%	
O=S(=O)(NCc1ccc(OCC2(C(F)(F)F)OCCO2)cc1)C(F)(F)F [compound 207]	0%	0%	
O=C(OCC(F)(F)C(F)(F)F)c1cnn(Cc2ccc(OCC(O)(O)C(F)(F)F)cc2)c1 [compound 46]	64%	85%	
CCCO/C(=C\Oc1cccc(Cn2cc(C(=O)OCC)cn2)c1)C(F)(F)F [compound 324]			Test A disease control rating [1, 3]: 0%; Test B disease control rating [2, 3]: 0%
CCOC(=O)c1cnn(Cc2ccc(OCC3(C(F)(F)F)OCCO3)nc2)c1 [compound 166]	100%	95%	
C=C(C)COC(=O)c1cnn(Cc2ccc(OCC3(C(F)(F)F)OCCO3)cc2)c1 [compound 228]	100%	0%	
CCOC(=O)c1cnn(COc2ccc(OCC(O)(O)C(F)(F)F)cc2F)c1 [compound 424]			pest or weed control at 10 ppm [1, 3]: 97%; pest or weed control at 10 ppm [2, 3]: 41%
CCOC(=O)c1ccn(Cc2ccc(OCC(O)(O)C(F)(F)F)cc2)n1 [compound 233]			Test A disease control rating [1, 7]: 100%; Test B disease control rating [2, 8]: 96%
CCO/C(=C\Oc1ccc(Cn2cnc(C#N)n2)cc1)C(F)(F)F [compound 82]	97%	0%	
